Experimental findings from US20230117205A1, “B7-H4 ANTIBODY-DRUG CONJUGATES FOR THE TREATMENT OF CANCER” (SEAGEN INC., priority 2021, published 2023) are described below.

One test has as its system MDA-MB-231. Briefly: In vitro cytotoxicity, 96-hour 3D spheroid, CellTiter-Glo. Format: cell-based, human. Conditions: MDA-MB-231 (non-B7-H4-expressing). The protocol: (§1) The cytotoxicity was evaluated when cells were grown in 3D spheroid (round bottom, ultra-low attachment plates) conditions.
(§2) Cancer cell lines expressing B7-H4 (SKBR3, MX-1, and MDA-MB-468) as well as a non-B7-H4-expressing cell line (MDA-MB-231) were thawed from cryovials stored at […] into complete growth media and allowed to grow and recover from thaw at 37° C. and 5% CO2 until cell viability determined by Vi-CELL XR (Beckman Coulter, Indianapolis, Ind.) were above 90%. Cells were then counted and plated at 2000, 2200, 2200, and 2200 cells/well respectively. Cells were plated in 150 μL complete growth media in round bottom, black walled, ultra-low attachment, 96-well plates (Corning 4520). Cell plates were placed at 37° C. and 5% CO2 overnight to allow cells to adhere. ADCs were thawed and 4×8-point serial dilutions were prepared (final dose range 1000-0.061 ng/mL) in RPMI 1640+20% FBS. Fifty μL of each dilution were then added to each cell plate in triplicate. Cells were then left to incubate at 37° C. and 5% CO2 for 96 hours. Cell plates were then removed from the incubator and allowed to cool to room temperature for 30 minutes. CellTiter-Glo® luminescent assay (Promega Corporation, Madison, Wis.) was prepared according to Promega's protocol. One hundred uL CellTiter-Glo® were added to assay plates using a Formulatrix Tempest liquid handler (Formulatrix, Inc.) and plates were heat sealed using an ALPS300 automated microplate heat sealer (Thermo Scientific) and protected from light for 30 minutes at room temperature. The luminescence of each plate was then determined using an EnVision Multilabel plate reader (Perkin Elmer, Waltham, Mass.). […] One hundred uL of lysed spheroid suspension was then transferred to a black walled, flat bottom 96 well plate and read on the EnVision Multilabel plate reader (Perkin Elmer, Waltham, Mass.). Raw data were then analyzed in Graphpad Prism (San Diego, Calif.) using a non-linear, 4-parameter curve fit model (Y=Bottom+[Top-Bottom]/[1+10^[[Log EC50-X]×HillSlope]]). […]
A general note: ATP-based viability assays read luminescence as a measure of living cells.

In another test the test system is MDA-MB-468. Described as above. The format is cell-based, human. The protocol:
as §1, §2

Another test concerns SKBR3. Described as above. Format: cell-based, human. The protocol:
as §1, §2

The target in the next test is T1, FcγRI (Homo sapiens, UniProt P12314).
T1 construct: expressed in transfected cells; host or cells: Jurkat (NFAT-luciferase reporter)
T1 sequence (P12314 16-374): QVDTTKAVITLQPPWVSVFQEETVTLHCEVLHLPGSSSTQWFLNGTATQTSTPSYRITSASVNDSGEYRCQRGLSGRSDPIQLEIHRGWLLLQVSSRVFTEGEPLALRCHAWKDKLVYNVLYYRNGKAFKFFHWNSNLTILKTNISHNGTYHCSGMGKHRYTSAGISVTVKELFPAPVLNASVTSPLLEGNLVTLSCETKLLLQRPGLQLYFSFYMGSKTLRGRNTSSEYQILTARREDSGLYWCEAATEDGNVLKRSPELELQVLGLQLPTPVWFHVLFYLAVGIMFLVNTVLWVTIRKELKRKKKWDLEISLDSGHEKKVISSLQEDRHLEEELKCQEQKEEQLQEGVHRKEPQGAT
Description: FcγR Jurkat NFAT-luciferase reporter cell assay with SKBR3 target cells. Format: cell-based. The protocol:
(§3) Cellular FcγR signaling was measured in a cell-based assay that uses SKBR3 target cells that endogenously express B7-H4 and Jurkat effector cells engineered to express FcγRI, RIIa, or RIII and an NFAT (nuclear factor of activated T cells) driven luciferase reporter gene. […] The luciferase signal is proportional to the degree of FcγR-induced effector cell activation and serves as a surrogate for ADCC (FcγRIII) or ADCP (FcγRI/IIa).
(§4) Specifically, Jurkat effector cells engineered to express FcγRI, RIIa, or RIII and an NFAT (nuclear factor of activated T cells) driven luciferase reporter gene were thawed and cultured in NFAT reporter cell medium (RPMI 1640 Medium (Gibco #11875-093) supplemented with 4% HyClone™ Fetal Bovine Serum, Super Low IgG (Gibco #A33819-01), 1× Penicillin-Streptomycin (Gibco #15140-122), 1×MEM nonessential amino acids (Gibco #11140-050), 1× L-Glutamine (Gibco #25030-081), 1× Sodium pyruvate (Gibco #11360-070), Hygromycin (Invitrogen #10687), Antibiotic G-418 sulfate solution (Promega #V8091), HEPES (Gibco #15630)). The Jurkat FcγR signaling assay was then performed as follows:
(§5) The day before the assay, target SKBR3 cells were lifted using Versene (Gibco #15040-066), washed twice with PBS, and plated at 1.2×10^4 cells per well in 90 μL RPMI 1640 containing 10% low IgG FBS and penicillin/streptomycin in black-walled 96-well plates (Corning #3603). The following day, NFAT assay buffer was prepared by adding 4 mL low IgG serum to 100 mL of RPMI 1640, mixed, and warmed to 37° C. NFAT assay buffer was used to resuspend all cells and antibody dilutions. Stock dilution plates (10×) of each antibody were prepared at 100, 30, 10, 3, 1, 0.3, 0.1, 0.03, 0.01, and 0.003 μg/mL. […] Effector cells were counted, washed twice in PBS, and resuspended at 1×10^6 cells/mL in NFAT assay buffer. […] Luminescence was measured for all samples with the Envision 96 CTG protocol (Envision plate reader, PerkinElmer) after mixing on a shaker (covered with foil) for at least 5 minutes. Background (no cells) signal was subtracted from the raw luminescence signal prior to graphing.

Another test deals with T2, FcγRIII (Homo sapiens, UniProt P08637).
T2 construct: expressed in transfected cells; host or cells: Jurkat (NFAT-luciferase reporter)
T2 sequence (P08637 17-254): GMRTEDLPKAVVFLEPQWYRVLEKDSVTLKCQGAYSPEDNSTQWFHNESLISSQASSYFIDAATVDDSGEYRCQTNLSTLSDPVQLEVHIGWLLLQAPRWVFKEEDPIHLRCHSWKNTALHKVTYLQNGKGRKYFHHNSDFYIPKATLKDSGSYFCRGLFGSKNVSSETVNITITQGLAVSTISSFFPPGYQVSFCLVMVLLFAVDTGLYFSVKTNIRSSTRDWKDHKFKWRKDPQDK
Described as above. The format is cell-based. The protocol: as §3, §4, §5

The target in the next test is T3, FcγRIIa (Homo sapiens, UniProt P12318).
T3 construct: expressed in transfected cells; host or cells: Jurkat (NFAT-luciferase reporter)
T3 sequence (P12318 34-317): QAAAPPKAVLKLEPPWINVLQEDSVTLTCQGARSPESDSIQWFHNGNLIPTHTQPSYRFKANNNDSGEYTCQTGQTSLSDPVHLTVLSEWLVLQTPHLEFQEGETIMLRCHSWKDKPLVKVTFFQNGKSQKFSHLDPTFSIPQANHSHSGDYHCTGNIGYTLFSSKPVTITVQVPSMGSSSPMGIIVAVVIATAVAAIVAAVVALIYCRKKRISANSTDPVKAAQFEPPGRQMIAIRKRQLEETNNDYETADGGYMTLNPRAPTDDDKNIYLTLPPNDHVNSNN
The description is as above. The format is cell-based. The protocol: as §3, §4, §5

On to “SGN-B7H4V: ADC of fully human IgG1 anti-B7-H4 mAb conjugated to monomethyl auristatin E (MMAE) via a protease-cleavable valine-citrulline linker (vedotin)”, for which the “×50” value is above 1000 ng/mL with MDA-MB-231, 105 ng/mL in the test on MDA-MB-468 and 4 ng/mL in the test with SKBR3. Also, in the test with FcγRI, the FcγRI-mediated luciferase activity entry is “dose-dependent increase”. Further, the FcγRIII-mediated luciferase activity result with FcγRIII was “dose-dependent increase”. Besides, in the test with FcγRIIa, the FcγRIIa-mediated luciferase activity result is recorded as “not FcγRIIa-mediated luciferase activity”.
